Measurements from patent US11254654B2, “Heterochromatin gene repression inhibitors” (The University of North Carolina at Chapel Hill, priority 2017, dated 2022).
Counter-ions that a name gives are not always drawn.

What was measured:
[1] = system: TetR-HP1; assay: Orthogonal TetR-HP1 recruitment assay (BFP reporter); type: cell-based, mouse; conditions: 5 μM, 48 hrs, with TetR-HP1 recruitment
Text: The CiA:Oct4 recruitment system in mouse embryonic stem cells contains Gal4 and Zinc finger DNA binding arrays and a downstream nuclear eGFP gene in place of a single Oct4 allele as previously described (Hathaway et al., 2012). The CiA:Oct4 N118/N163 cell line containing viral integrations of N118 and N163 plasmids (N118-nLV EF-1α-Gal-FKBPx1-HA-PGK-Blast, N163-nLV EF-1α-HP1α (CS)-Frbx2(Frb+FrbWobb)-V5-PGK-Puro) was used for all experiments unless otherwise stated. The CiA:Oct4 N205 line containing the lentiviral construct N205 (N205-nLV EF-1α-ZFHD1-link-FKBP-HA <T2A> HP1αCS-Frbx2-V5-PGK-Blast) was used for shRNA experiments. CiA:Oct4 N118 was infected with the lentiviral construct N192 (N192-nLV Dual Promoter EF-1α-MCS-PGK-Puro HP1γ-(CS)-Frbx2(wobbmo)-V5) to yield the csHP1γ recruitment system CiA:Oct4 N118/N192. […]
TetR-HP1 cell lines were continuously grown with 1 μg/ml doxycycline to maintain an open chromatin state. […] Median BFP intensity was determined by FlowJo software analysis. […]

[2] = system: csHP1γ; assay: csHP1γ inhibition assay, CiA:Oct4 N118/N192 cells; type: cell-based, mouse; conditions: 5 μM, 48 hrs, + 6 nM rapamycin
Description: Day 0, CiA:Oct4 N118/N192 cells were grown and cultured in 96 well plate format with 10,000 cells seeded per well. Day 1, media was aspirated and replaced with fresh ES media containing 5 μM of top screen compounds and +/−6 nM rapamycin. Day 2, media was aspirated and replaced with fresh ES media containing 5 μM of top screen compounds and +/−6 nM rapamycin. Day 3, wells were aspirated and washed with PBS prior to sample preparation and analysis by flow cytometry.
After 48-hrs of 5 μM compound treatment with and without rapamycin, the % GFP (+) populations were determined by flow cytometry analysis.
Flow cytometry analysis was used to determine the % GFP (+) population. Data was converted to % inhibition for the +rapamycin samples. Experiments were performed in biological triplicate. (n≥3) (p≤0.05*, 0.01**).

Q: What does the source list for COc1cc2nc(N3CCCC3)nc(N[C@H]3CCCNC3)c2cc1OC [compound 1, (S)-6,7-Dimethoxy-N-(Piperidin-3-yl)-2-(Pyrrolidin-1-yl)Quinazolin-4-Amine Trifluoroacetic Acid Salt]?
A: Inhibition of HP1-mediated heterochromatin formation (median BFP expression) [1]: significantly inhibit; Inhibition of csHP1γ-mediated repression of CiA:Oct4 locus [2]: most potent inhibitors of csHP1γ
